# According to US20240075050A1, “Methods and Compositions for Treating Leucine Rich Repeat Kinase 2 (LRRK2)-Associated Disorder or Condition” (University of Connecticut, priority 2022, published 2024):
# Legend:
# [1] = test system: LRRK2; test: Endogenous LRRK2 levels in SH-SY5Y cells, Western blot; type: cell-based, human
# [2] = test system: DA neurons in substantia nigra pars compacta; test: LPS-induced DA neurodegeneration in mice, TH-positive neurons in SNpc; type: in vivo, mouse; conditions: 21 days
# Procedure: Stereotaxic intracranial injection. Three days before survival surgery, osmotic pumps (ALZET, 1004) were filled with saline, 1 mg/ml or 30 mg/ml AICAr in saline, assembled with brain infusion kits (ALZET, Brain Infusion Kit 2), and incubated in saline at 37° C. 3-month-old mice were anesthetized by isoflurane gas supplemented with 0.5 L/min oxygen. A ˜1.5 cm incision was made midline on the scalp. For mouse striatum injection, one hole was drilled at the following coordinates: anterioposterior=+0.5 mm from bregma; lateral=−2.0 mm from bregma; dorsoventral=−3.5 mm. For mouse substantia nigra pars compacta (SNpc) injection, one hole was drilled at the following coordinates: anterioposterior=−3.2 mm from bregma; lateral=−1.2 mm from bregma; dorsoventral=−4.2 mm. 1 ul LPS (5 ug) or PBS was injected at a rate of 0.2 ul/min using a Hamilton syringe with a 26-gauge blunt needle. […]
# Immunohistochemistry. […] After antigen retrieval with 10 mM sodium citrate (pH 6.0) and 0.05% Tween-20 at 37° C. for 30 minutes, brain sections were washed in PBS for three times, permeabilized with 0.3% Triton X-100 in PBS, blocked with 10% goat serum in PBS, incubated with anti-tyrosine hydroxylase (TH) antibody overnight at 4° C., and then detected with Biotin-SP goat anti-rabbit IgG antibody at room temperature for 2 hours. […]
# Stereological cell counting. […] Total cells were counted from 8 serial sections per animal.
# [3] = test system: DCP1A; test: DCP1A expression levels in SH-SY5Y cells, Western blot; type: cell-based, human; conditions: 1 mM, 48 hours
# Procedure: FIGS. 6A-6E depict that the decapping enzyme complex DCP1/2 is involved in LRRK2 mRNA decay. FIGS. 6A and 6B depict the DCP1A and DCP2 expression levels upon AICAr treatment. SH-SY5Y cells were treated with or without 1 mM AICAr for 48 hours. DCP1A and DCP2 expression levels were analyzed by Western blot. Images were quantified by ImageJ software. Data are mean±SEM, n=3 independent experiments. **p<0.01 by Student's t tests. FIGS. 6C and 6D depict the LRRK2 expression levels upon DCP1A or DCP2 overexpression. SH-SY5Y cells were transduced with lentiviruses carrying Flag-DCP1A or Flag-DCP2 for 48 hours. LRRK2 expression levels were analyzed by Western blot. Images were quantified by ImageJ software. Data are mean±SEM, n=3 independent experiments. *p<0.05 by Student's t tests. FIG. 6E depict LRRK2 mRNA decapping by DCP1A and DCP2. Recombinant DCP1A and DCP2 proteins were purified from HEK 293T cells and incubated with [α-32P]cap-labeled LRRK2 RNA. LRRK2 mRNA decapping was analyzed by one-dimensional thin layer chromatography.
structure (smiles),measurement,setting,value
"NC(=O)c1ncn([C@@H]2O[C@H](CO)[C@@H](O)[C@H]2O)c1N [AICAr, 5-aminoimidazole-4-carboxamide riboside]","LRRK2 level, time and dose course","[1]; 1 mM, 24h-48h treatment",suppressed LRRK2 level dramatically
same,LRRK2 protein levels in AUF1-KO cells,"[1]; SH-SY5Y AUF1-KO cells, 1 mM, 48 hours",largely attenuated effects
same,AICAr effects on LRRK2 in AUF1 KO cells with stable AUF1-GFP expression,"[1]; SH-SY5Y AUF1 KO, AUF1-GFP expressed back, 1 mM, 48 hours",significantly rescued AICAr effects
same,effects on LRRK2 protein levels in WT versus AMPK KO cell line,"[1]; SH-SY5Y WT and AMPK KO, 1 mM, 48 hours",similar
same,endogenous LRRK2 levels,"[1]; SH-SY5Y cells, 1 mM, 48 hours",decreased
same,LRRK2 protein levels despite MG132 or CQ,"[1]; SH-SY5Y, 1 mM AICAr with 0.35 μM MG132 or 5 μM CQ, 48 hours",still largely reduced
same,LPS-induced neurodegeneration,"[2]; LRRK2 KO mice, AICAr 2.4 μg/day/animal into SNpc",did not significantly rescue
same,LPS-induced DA neurodegeneration,"[2]; WT mice, AICAr 2.4 μg/day/animal into SNpc by osmotic pumps",significantly reduced
same,endogenous levels of DCP1A,[3],significantly increased
